Laboratory results from article PMC12396291, “DNA-encoded library screening uncovers potent DNMT2 inhibitors targeting a cryptic allosteric binding site” (iScience, 2025).

Legend:
[1] = Solubility remark from ITC titration; assay type: physicochemical; settings: ITC buffer, remark in words
Protocol: The DNMT2 protein was purified via size exclusion chromatography eluting in isothermal titration calorimetry (ITC) buffer (50 mM sodium phosphate pH 8.0, 300 mM NaCl, 1 mM EDTA, 2 mM β-mercaptoethanol, 0.1% polysorbate-20) and directly used for measurements.[3] All compounds were dissolved in DMSO to a concentration of 5 mM and were then diluted in ITC buffer to a final concentration of 500 μM. DNMT2 was diluted to a final concentration of 50 μM with 10% DMSO to match the ligand stocks' DMSO concentration. For the ITC measurements, a MicroCal PEAQ-ITC Automated workstation (Malvern Panalytical) with a 200 μL Hastelloy cell and an injection syringe volume of 40 μL was used. All experiments were performed in triplicates at 25 °C unless otherwise noted. For each measurement, 19 compound injections (2 μL each) with an injection speed of 0.5 μL/s were added to the reaction cell containing DNMT2. The spacing time between sequential injections was 300 s, and the stirring speed was set to 750 rpm with a reference power of 42 μW. As control experiments, ligands were titrated into ITC buffer. Data analysis and fitting were carried out using the MicroCal PEAQ-ITC Analysis Software 1.21 and plotted in GraphPad Prism 8.0.1.

DNMT2-eIF4E interaction = biological target: T1, DNMT2-eIF4E interaction (Homo sapiens, UniProt O14717); assay: Pull-down competition assay; assay type: binding; settings: 100 μM sinefungin, 100 μM 16 or 10 μM tRNA^Asp
T1 construct: Recombinant human DNMT2 (full-length); host or cells: E. coli (DNMT2)
Protocol: (§1) For immobilization on streptavidin beads, DNMT2 was biotinylated using the EZ-Link Sulfo-NHS-LC-Biotinylation kit. A 20-fold excess of Sulfo-NHS-LC-Biotin (10 mM in water) was added to DNMT2 and incubated for 2 h on ice. […] The biotinylation level was estimated using a HABA assay included in the kit according to the manufacturer’s protocols.
(§2) For in vitro pull-down assays, biotinylated DNMT2 was immobilized on streptavidin-coated paramagnetic beads (GenScript Streptavidin MagBeads). For this, beads were washed with PBS buffer containing 0.05% Triton X-100, and subsequently, DNMT2 (30 μg per 50 μL beads) was immobilized for 45 min at RT. As a negative control, beads were treated with a protein-free buffered solution. Beads were washed with PBS buffer, and for each sample, 5 μL beads were added to either 1.5 μg of recombinant NonO protein (Active Motif) or 3.0 μg of recombinant eIF4E protein (Cayman). Beads were incubated for 1 h at RT, and subsequently, the supernatant was removed. […] The samples were incubated for 45 min at RT, and the supernatant was treated with 2 μL 5× Laemmli buffer. […] All samples were heated to 95 °C for 10 min and analyzed via SDS-PAGE. […] Protein bands were visualized using a GE Healthcare Typhoon Trio biomolecular scanner, with laser excitation at 488 nm and fluorescence detection at 580 nm.

DNMT2-NonO interaction = biological target: T2, DNMT2-NonO interaction (Homo sapiens, UniProt O14717); assay: Pull-down competition assay; assay type: binding; settings: 100 μM SFG, 100 μM 16 or 10 μM tRNA^Asp
T2 construct: Recombinant human DNMT2 (full-length); host or cells: E. coli (DNMT2)
T2 sequence (O14717 1-391): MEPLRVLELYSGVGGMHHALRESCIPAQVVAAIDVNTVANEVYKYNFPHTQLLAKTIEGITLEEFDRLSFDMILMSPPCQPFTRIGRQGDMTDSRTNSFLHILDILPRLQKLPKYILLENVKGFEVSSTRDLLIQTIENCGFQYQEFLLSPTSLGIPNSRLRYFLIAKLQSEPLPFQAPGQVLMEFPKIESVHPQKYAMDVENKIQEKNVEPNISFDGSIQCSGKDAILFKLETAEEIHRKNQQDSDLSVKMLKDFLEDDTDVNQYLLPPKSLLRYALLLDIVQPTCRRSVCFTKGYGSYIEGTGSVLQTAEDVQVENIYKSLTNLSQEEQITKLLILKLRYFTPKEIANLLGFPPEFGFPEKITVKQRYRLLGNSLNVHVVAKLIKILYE
T2 sequence (Q15233 1-471 partner): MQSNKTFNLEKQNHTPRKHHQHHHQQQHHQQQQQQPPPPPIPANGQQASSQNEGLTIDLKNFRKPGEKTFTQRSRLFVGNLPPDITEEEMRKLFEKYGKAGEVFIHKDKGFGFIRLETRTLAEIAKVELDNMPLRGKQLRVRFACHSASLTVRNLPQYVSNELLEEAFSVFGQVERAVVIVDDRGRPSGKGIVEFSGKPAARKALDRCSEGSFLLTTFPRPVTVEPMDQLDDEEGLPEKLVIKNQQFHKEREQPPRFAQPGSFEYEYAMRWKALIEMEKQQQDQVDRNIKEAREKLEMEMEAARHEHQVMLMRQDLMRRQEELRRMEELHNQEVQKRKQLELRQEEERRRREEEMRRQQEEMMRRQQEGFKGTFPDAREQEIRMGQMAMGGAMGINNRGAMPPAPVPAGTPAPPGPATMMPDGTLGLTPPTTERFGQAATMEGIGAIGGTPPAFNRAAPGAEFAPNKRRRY
Protocol: as §1, §2

T1 sequence (P06730 whole entry partner, one chain of several): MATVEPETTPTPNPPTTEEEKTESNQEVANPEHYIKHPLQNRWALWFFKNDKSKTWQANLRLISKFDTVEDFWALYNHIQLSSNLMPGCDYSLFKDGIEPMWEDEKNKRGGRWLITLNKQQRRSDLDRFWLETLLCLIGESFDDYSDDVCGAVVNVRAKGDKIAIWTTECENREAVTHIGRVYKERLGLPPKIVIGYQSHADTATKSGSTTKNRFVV

Row | SMILES | solubility [1] | displacement of eIF4E from immobilized DNMT2 (DNMT2-eIF4E interaction) | displacement of NonO from immobilized DNMT2 (DNMT2-NonO interaction)
1 | CNC(=O)[C@@H](Nc1nc(N2CCN(c3c(C)cccc3C)CC2)nc(N(C)c2cccc(C)c2)n1)[C@@H](C)OC(C)(C)C [Compound 2] | low solubility | – | –
2 | Nc1ncnc2c1ncn2[C@@H]1O[C@H](C[C@@H](N)CC[C@H](N)C(=O)O)[C@@H](O)[C@H]1O [sinefungin] | – | neither NonO nor eIF4E could be displaced | NonO could not be displaced
